Assay results taken from ChEMBL document CHEMBL1201862, “PubChem BioAssay data set” (2004).
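These data come from cells grown in 96-well plates and exposed to compound for 48 hours at five concentrations. At the GI50, growth is halved.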 Calls of active or inactive are those of the source. Rule as the data show it: active = GI50 up to about 1.1 µM and inactive = higher.

What was measured:
Assay in all cases: NCI anticancer screen, dose series, 48 h
[1] = test system: COLO 205
[2] = test system: MDA-N
[3] = test system: HCT-15
[4] = test system: NCI-H460
[5] = test system: 786-0
[6] = test system: U-251
[7] = test system: A549
[8] = test system: SR
[9] = test system: NCI/ADR-RES
[10] = test system: HT-29
[11] = test system: SK-MEL-28
[12] = test system: Hs-578T
[13] = test system: SW-620
[14] = test system: IGROV-1
[15] = test system: TK-10
[16] = test system: OVCAR-4
[17] = test system: UACC-62
[18] = test system: HCC 2998
[19] = test system: SNB-19
[20] = test system: M14
[21] = test system: HCT-116
[22] = test system: NCI-H522
[23] = test system: Malme-3M
[24] = test system: RPMI-8226
[25] = test system: SK-MEL-5
[26] = test system: SF-539
[27] = test system: BT-549
[28] = test system: HOP-92
[29] = test system: LOX IMVI
[30] = test system: MDA-MB-435
[31] = test system: SN12C
[32] = test system: HOP-62
[33] = test system: K562
[34] = test system: UACC-257
[35] = test system: SF-295
[36] = test system: MCF7
[37] = test system: HL-60
[38] = test system: OVCAR-5
[39] = test system: SK-MEL-2
[40] = test system: EKVX
[41] = test system: A498
[42] = test system: MDA-MB-231
[43] = test system: NCI-H226
[44] = test system: UO-31
[45] = test system: NCI-H23
[46] = test system: SK-OV-3
[47] = test system: RXF 393
[48] = test system: CAKI-1
[49] = test system: OVCAR-3
[50] = test system: PC-3
[51] = test system: DU-145
[52] = test system: SF-268
[53] = test system: ACHN
[54] = test system: OVCAR-8
[55] = test system: SNB-75
[56] = test system: CCRF-CEM
[57] = test system: MOLT-4
[58] = test system: KM12

## CC1=C(/C=C/C(=O)O)C(C)(C)CCC1
[1]
  GI50: > 100 µM (inactive)
[2]
  GI50: > 100 µM (inactive)
[3]
  GI50: > 100 µM
[4]
  GI50: > 100 µM (inactive)
[5]
  GI50: > 100 µM (inactive)
[6]
  GI50: > 100 µM (inactive)
[7]
  GI50: > 100 µM (inactive)
[8]
  GI50: > 100 µM (inactive)
[9]
  GI50: > 100 µM (inactive)
[10]
  GI50: > 100 µM (inactive)
[11]
  GI50: > 100 µM (inactive)
[12]
  GI50: > 100 µM (inactive)
[13]
  GI50: > 100 µM (inactive)
[14]
  GI50: > 100 µM (inactive)
[15]
  GI50: > 100 µM (inactive)
[16]
  GI50: > 100 µM (inactive)
[17]
  GI50: > 100 µM (inactive)
[18]
  GI50: > 100 µM (inactive)
[19]
  GI50: > 100 µM (inactive)
[20]
  GI50: > 100 µM (inactive)
[21]
  GI50: > 100 µM (inactive)
[22]
  GI50: > 100 µM (inactive)
[23]
  GI50: > 100 µM (inactive)
[24]
  GI50: > 100 µM (inactive)
[25]
  GI50: > 100 µM (inactive)
[26]
  GI50: > 100 µM (inactive)
[27]
  GI50: > 100 µM (inactive)
[28]
  GI50: > 100 µM (inactive)
[29]
  GI50: > 100 µM (inactive)
[30]
  GI50: > 100 µM (inactive)
[31]
  GI50: > 100 µM (inactive)
[32]
  GI50: > 100 µM (inactive)
[33]
  GI50: > 100 µM (inactive)
[34]
  GI50: > 100 µM (inactive)
[35]
  GI50: > 100 µM (inactive)
[36]
  GI50: > 100 µM (inactive)
[37]
  GI50: > 100 µM (inactive)
[38]
  GI50: > 100 µM (inactive)
[39]
  GI50: > 100 µM (inactive)
[40]
  GI50: > 100 µM (inactive)
[41]
  GI50: > 100 µM (inactive)
[42]
  GI50: > 100 µM (inactive)
[43]
  GI50: > 100 µM (inactive)
[44]
  GI50: > 100 µM (inactive)
[45]
  GI50: > 100 µM (inactive)
[46]
  GI50: > 100 µM (inactive)
[47]
  GI50: > 100 µM (inactive)
[48]
  GI50: > 100 µM (inactive)
[49]
  GI50: > 100 µM (inactive)
[50]
  GI50: > 100 µM (inactive)
[51]
  GI50: > 100 µM (inactive)
[52]
  GI50: > 100 µM (inactive)
[53]
  GI50: > 100 µM (inactive)
[54]
  GI50: > 100 µM (inactive)
[55]
  GI50: > 100 µM (inactive)

## Cc1nc2ccc(Br)cc2c(=O)n1-c1ccc(N)cc1
[1]
  GI50: > 100 µM (inactive)
[2]
  GI50: > 100 µM (inactive)
[3]
  GI50: > 100 µM
[4]
  GI50: > 100 µM (inactive)
[5]
  GI50: > 100 µM (inactive)
[7]
  GI50: > 100 µM (inactive)
[8]
  GI50: > 100 µM (inactive)
[9]
  GI50: > 100 µM (inactive)
[10]
  GI50: > 100 µM (inactive)
[11]
  GI50: > 100 µM (inactive)
[12]
  GI50: > 100 µM (inactive)
[13]
  GI50: > 100 µM (inactive)
[14]
  GI50: > 100 µM (inactive)
[15]
  GI50: > 100 µM (inactive)
[16]
  GI50: > 100 µM (inactive)
[17]
  GI50: > 100 µM (inactive)
[18]
  GI50: > 100 µM (inactive)
[19]
  GI50: > 100 µM (inactive)
[20]
  GI50: > 100 µM (inactive)
[21]
  GI50: > 100 µM (inactive)
[23]
  GI50: > 100 µM (inactive)
[25]
  GI50: > 100 µM (inactive)
[26]
  GI50: > 100 µM (inactive)
[27]
  GI50: 99.5 µM (inactive)
[28]
  GI50: > 100 µM (inactive)
[29]
  GI50: > 100 µM (inactive)
[30]
  GI50: > 100 µM (inactive)
[56]
  GI50: > 100 µM (inactive)
[31]
  GI50: > 100 µM (inactive)
[57]
  GI50: > 100 µM (inactive)
[32]
  GI50: > 100 µM (inactive)
[33]
  GI50: > 100 µM (inactive)
[34]
  GI50: > 100 µM (inactive)
[35]
  GI50: > 100 µM (inactive)
[36]
  GI50: > 100 µM (inactive)
[37]
  GI50: > 100 µM (inactive)
[58]
  GI50: > 100 µM (inactive)
[38]
  GI50: > 100 µM (inactive)
[39]
  GI50: > 100 µM (inactive)
[40]
  GI50: > 100 µM (inactive)
[41]
  GI50: > 100 µM (inactive)
[42]
  GI50: > 100 µM (inactive)
[43]
  GI50: > 100 µM (inactive)
[44]
  GI50: 84.5 µM (inactive)
[46]
  GI50: > 100 µM (inactive)
[47]
  GI50: 28.1 µM (inactive)
[48]
  GI50: > 100 µM (inactive)
[49]
  GI50: > 100 µM (inactive)
[50]
  GI50: > 100 µM (inactive)
[51]
  GI50: > 100 µM (inactive)
[52]
  GI50: > 100 µM (inactive)
[53]
  GI50: > 100 µM (inactive)
[54]
  GI50: > 100 µM (inactive)
[55]
  GI50: 17.2 µM (inactive)
